According to ChEMBL document CHEMBL6103558, “The potential of MAO inhibitors as chemotherapeutics in cancer: A literature survey” (Eur J Med Chem, 2025):
One block for each compound: values may come before it.

Columns and labels:
HCT-116 [1] = test: Anti-migratory activity against human HCT116 cells assessed as reduction in cell migration at 0.05 uM incubated for 24 hrs by wound healing assay relative to control; format: functional; parameters: scale not given: the % may be the effect or the level left
HCT-116 [2] = test: Anticancer activity against human HCT-116 cells assessed as reduction in cell growth by MTT assay; format: functional, cell-based
MCF7 = test: Antiproliferative activity against human MCF7 cells by MTT assay; format: functional, cell-based
HCT-116 [3] = test: Antiproliferative activity against human HCT-116 cells by MTT assay; format: functional, cell-based
SK-OV-3 = test: Antiproliferative activity against human SK-OV-3 cells by MTT assay; format: functional, cell-based
[4] = molecular target: T1, Amine oxidase [flavin-containing] B (Homo sapiens, UniProt P27338); test: Binding affinity to MAO-B (unknown origin) measured by MAO-GloTM method
T1 sequence (P27338 whole entry): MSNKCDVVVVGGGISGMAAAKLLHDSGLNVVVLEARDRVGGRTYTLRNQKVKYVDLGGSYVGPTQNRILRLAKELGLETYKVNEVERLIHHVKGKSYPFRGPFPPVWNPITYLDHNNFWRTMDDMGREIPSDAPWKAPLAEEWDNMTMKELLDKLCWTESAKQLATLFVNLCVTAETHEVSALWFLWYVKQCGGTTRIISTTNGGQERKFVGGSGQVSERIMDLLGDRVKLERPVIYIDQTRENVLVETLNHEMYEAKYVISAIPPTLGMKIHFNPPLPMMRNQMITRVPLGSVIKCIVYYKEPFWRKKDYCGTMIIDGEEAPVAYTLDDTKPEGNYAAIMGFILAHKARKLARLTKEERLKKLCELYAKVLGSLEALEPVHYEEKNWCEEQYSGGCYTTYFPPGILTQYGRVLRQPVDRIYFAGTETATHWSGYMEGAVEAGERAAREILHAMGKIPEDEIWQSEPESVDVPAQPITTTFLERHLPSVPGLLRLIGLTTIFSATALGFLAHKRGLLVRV

LN-229 = test: Growth inhibition of human LN-229 cells incubated for 48 hrs by trypan blue exclusion assay; format: functional
[5] = molecular target: T1, Amine oxidase [flavin-containing] B; test: Inhibition of human MAO-B
LNCaP = test: Antiproliferative activity against human LNCap cells assessed as reduction in cell viability incubated for 72 hrs by resazurin dye based assay; format: functional
[6] = molecular target: T2, Amine oxidase [flavin-containing] A (Homo sapiens, UniProt P21397); test: Binding affinity to human recombinant MAO-A assessed as inhibition constant by MAO-GloTM method
T2 sequence (P21397 whole entry): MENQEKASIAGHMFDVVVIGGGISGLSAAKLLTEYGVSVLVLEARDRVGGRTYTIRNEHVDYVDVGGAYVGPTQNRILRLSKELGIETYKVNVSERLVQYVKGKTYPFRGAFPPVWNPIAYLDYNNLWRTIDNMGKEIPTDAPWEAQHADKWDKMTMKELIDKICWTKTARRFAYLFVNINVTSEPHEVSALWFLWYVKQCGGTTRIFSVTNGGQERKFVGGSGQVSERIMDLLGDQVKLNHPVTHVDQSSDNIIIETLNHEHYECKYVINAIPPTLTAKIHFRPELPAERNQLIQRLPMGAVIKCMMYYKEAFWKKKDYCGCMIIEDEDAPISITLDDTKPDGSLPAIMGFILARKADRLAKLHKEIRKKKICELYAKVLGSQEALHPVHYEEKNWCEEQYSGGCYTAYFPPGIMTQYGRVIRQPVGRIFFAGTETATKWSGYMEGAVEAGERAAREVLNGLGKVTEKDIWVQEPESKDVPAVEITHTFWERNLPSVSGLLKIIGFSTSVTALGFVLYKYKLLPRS

A549 = test: Antiproliferative activity against human A549 cells; format: functional, cell-based
WiDr = test: Antiproliferative activity against human WiDr cells; format: functional, cell-based
SW1573 = test: Antiproliferative activity against human SW1573 cells; format: functional, cell-based
T47D = test: Antiproliferative activity against human T47D cells; format: functional, cell-based
[7] = molecular target: T2, Amine oxidase [flavin-containing] A; test: Inhibition of MAO-A (unknown origin)
HBL-100 = test: Antiproliferative activity against human HBL-100 cells; format: functional, cell-based

IC50 (HCT-116 [2]): 18 µM
Compound: O=C(Cn1cc(Cn2c(=O)c(Cc3ccccc3)nc3ccccc32)nn1)N/N=C/c1cccnc1
Activity (HCT-116 [1]): 75%

IC50 (MCF7): 4.83 µM
IC50 (HCT-116 [3]): 4.83 µM
IC50 (SK-OV-3): 4.83 µM
Compound: CN1CCC2=C(C1)C(c1c[nH]c3ccc(Br)cc13)c1cc(Cl)ccc1O2 (centres undefined)

Ki [4]: < 1 µM
Compound: C=C(CCCCCCNc1ccccc1OC)Nc1ccc(CCc2ccc(NC(=C)CCCCCCNc3ccccc3OC)cc2)cc1

Compound: COc1ccccc1NCCCCCCC(=O)Nc1ccc(CCc2ccc(NC(=O)CCCCCCNc3ccccc3OC)cc2)cc1
GI50 (LN-229): < 1 µM

IC50 (HCT-116 [2]): 7.85 µM
Compound: O=C(Cn1cc(Cn2c(=O)c(Cc3ccccc3)nc3ccccc32)nn1)NNC(=S)Nc1ccccc1
Activity (HCT-116 [1]): 75%

Compound: C/C(=N\Nc1nc(-c2cccc([N+](=O)[O-])c2)cs1)c1ccsc1
IC50 [5]: 0.0025 µM

IC50 (LNCaP): ~10 µM
Ki [6]: 0.0074 µM
Compound: O=c1cc(-c2ccccc2)oc2c(Cl)cc(Cl)cc12

Compound: O=[N+]([O-])c1ccc(/C=N/Nc2nc(-c3ccccc3)c[se]2)cc1
IC50 (A549): 24 µM
IC50 (WiDr): 24 µM
IC50 (SW1573): 24 µM
IC50 (T47D): 24 µM
IC50 [7]: 7.2 µM
IC50 (HBL-100): 24 µM

IC50 [5]: 0.0068 µM
Compound: C/C(=N\Nc1nc(-c2cccc([N+](=O)[O-])c2)cs1)c1cccs1
